Measurements published in US11471434B2, “Treatment for migraine” (INTRABIO LTD., priority 2017, dated 2022).

Assays:
[1] = system: NPC Chinese Hamster Ovary (CHO) cells; test: Relative lysosomal volume via LysoTracker in NPC CHO cells; assay type: cell-based; conditions: 1 mM, 72 hours, p <0.01 versus untreated NPC1-null, FIG. 1
Experimental: NPC Chinese Hamster Ovary (CHO) cells were treated in vitro for 72 hours with 1 mM of acetyl-DL-leucine, acetyl-L-leucine, acetyl-D-leucine, DL-leucine, L-leucine, and D-leucine, respectively. Relative lysosomal volume was quantified via LysoTracker.
Data presented in FIG. 1 show the results for each treatment, with lysosomal volume expressed as fold change relative to untreated wild-type […]. The asterisks (**) indicate a p-values of <0.01 versus untreated NPC1-null.

cerebellar symptoms = conditions: cited from earlier work
cerebellar ataxia = conditions: patients with cerebellar ataxia (Schniepp 2015); cited from earlier work
[2] = system: Niemann-Pick Type C (NPC); conditions: 12 patients with NPC (Bremova 2015); cited from earlier work
[3] = system: ataxia of different etiologies; conditions: patients with ataxia, responders (Becker-Bense 2015); cited from earlier work
vertigo = conditions: cited from earlier work
[4] = system: Migraine and Vestibular Migraine; test: Case study Example 4: Tanganil for migraine and vestibular migraine; assay type: in vivo, human; conditions: before treatment with Tanganil
From the text: Patient Details: • Sex: […] • Six tablets of Tanganil® per day: two in the morning, two at noon and two in the evening for one week; thereafter, ten tablets of Tanganil® per day: four in the morning, three at noon and three in the evening. Tanganil® tablets as described in Example 1.

Migraine with Aura = test: Case study Example 3: Tanganil for migraine with aura; assay type: in vivo, human; conditions: 600 mg taken once a week; before treatment with Tanganil
[5] = system: acute unilateral labyrinthectomy; conditions: rat, by activation of the vestibulo-cerebellum and deactivation of the posterolateral thalamus (Gunther 2015); cited from earlier work

SMILES	lysosomal volume (LysoTracker), fold change relative to untreated wild-type [1]	improvement of attacks of migraine headache with pain medication [4]	other results
CC(C)C[C@@H](N)C(=O)O [D-leucine]	significantly reduced	–	–
CC(C)C[C@H](N)C(=O)O [L-leucine]	significantly reduced	–	–
CC(=O)NC(CC(C)C)C(=O)O (racemic) [acetyl-DL-leucine]	significantly reduced	–	benefit in cerebellar patients (cerebellar symptoms; another case series (Pelz 2015)): did not find benefit; cerebellar symptoms (cerebellar symptoms; case series (Strupp 2013)): improvement of cerebellar symptoms; gait variability (cerebellar ataxia): improves gait variability; ataxia [2]: significant improvement in ataxia; brain metabolism (PET) [3]: increased metabolism in the midbrain and lower brainstem; cases with improvement in vertigo symptomology (vertigo; clinical results reported by various authors, including disappearance of vertigo attacks): more than 95 % of cases; safety profile (vertigo; used in France to treat acute vertigo since 1957): excellent safety profile
CC(C)CC(N)C(=O)O (racemic) [DL-leucine]	significantly reduced	–	–
Cc1c(N(C)CS(=O)(=O)[O-])c(=O)n(-c2ccccc2)n1C.[Na+] [Novalgin]	–	improvement	–
CC(=O)N[C@H](CC(C)C)C(=O)O [acetyl-D-leucine]	significantly reduced	–	–
CC(=O)Oc1ccccc1C(=O)O [Aspirin]	–	no improvement	–
CC(C)Cc1ccc(C(C)C(=O)O)cc1 (stereo not drawn) [Ibuprofen]	–	no improvement	response of headache attacks (Migraine with Aura): responding
CC(=O)N[C@@H](CC(C)C)C(=O)O [acetyl-L-leucine]	significantly reduced	–	effect on postural compensation [5]: significant effect
